Results published in PubChem BioAssay AID1963967 (Molecular Pharmacology Branch, DTP, NCI, 2024).

Tested on: 855422-203-R-J1-PDC spheroids with HUVEC/MSC, viability
Test: Anticancer human tumor 855422-203-R-J1-PDC patient-derived bladder carcinoma cell line growth inhibition [PI3K]
Conditions: for IC50: curve of first compound; for viability, T/C: stronger effect = lower value
Summary of the method: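 Stroma-containing spheroids: tumor line, pooled-donor HUVEC, hMSC. Treatments: targeted agents with PI3K inhibitors. Dosing: clinically relevant, half-log spacing, 10 microM ceiling without known Cmax. Read-out: cell viability.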

[1] = second compound 0.0316 µM, first compound 0.0316 µM
[2] = second compound 0.0316 µM, first compound 0.1 µM
[3] = second compound 0.0316 µM, first compound 0.316 µM
[4] = second compound 0.0316 µM, first compound 1 µM
[5] = second compound 0.0316 µM, first compound 3.16 µM
[6] = second compound 0.0316 µM, first compound 10 µM
[7] = second compound 0.1 µM, first compound 0.0316 µM
[8] = second compound 0.1 µM, first compound 0.1 µM
[9] = second compound 0.1 µM, first compound 0.316 µM
[10] = second compound 0.1 µM, first compound 1 µM
[11] = second compound 0.1 µM, first compound 3.16 µM
[12] = second compound 0.1 µM, first compound 10 µM
[13] = second compound 0.316 µM, first compound 0.0316 µM
[14] = second compound 0.316 µM, first compound 0.1 µM
[15] = second compound 0.316 µM, first compound 0.316 µM
[16] = second compound 0.316 µM, first compound 1 µM
[17] = second compound 0.316 µM, first compound 3.16 µM
[18] = second compound 0.316 µM, first compound 10 µM
[19] = second compound 1 µM, first compound 0.0316 µM
[20] = second compound 1 µM, first compound 0.1 µM
[21] = second compound 1 µM, first compound 0.316 µM
[22] = second compound 1 µM, first compound 1 µM
[23] = second compound 1 µM, first compound 3.16 µM
[24] = second compound 1 µM, first compound 10 µM
[25] = second compound 3.16 µM, first compound 0.0316 µM
[26] = second compound 3.16 µM, first compound 0.1 µM
[27] = second compound 3.16 µM, first compound 0.316 µM
[28] = second compound 3.16 µM, first compound 1 µM
[29] = second compound 3.16 µM, first compound 3.16 µM
[30] = second compound 3.16 µM, first compound 10 µM
[31] = second compound 10 µM, first compound 0.0316 µM
[32] = second compound 10 µM, first compound 0.1 µM
[33] = second compound 10 µM, first compound 0.316 µM
[34] = second compound 10 µM, first compound 1 µM
[35] = second compound 10 µM, first compound 3.16 µM
[36] = second compound 10 µM, first compound 10 µM
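Also: agents incubated with spheroids for one week before read-out.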
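For viability, T/C in this document: 100% = DMSO vehicle-treated control wells.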

Question: What does the source list for `CC(C)NCC(C(=O)N1CCN(c2ncnc3c2C(C)CC3O)CC1)c1ccc(Cl)cc1` (centres undefined) + Cc1nc(NC(=O)N2CCCC2C(N)=O)sc1-c1ccnc(C(C)(C)C(F)(F)F)c1?
Answer: IC50 (second compound 0.0316 µM): 1.36 µM; IC50 (second compound 0.1 µM): 1.08 µM; IC50 (second compound 0.316 µM): 0.875 µM; IC50 (second compound 1 µM): 0.188 µM; IC50 (second compound 3.16 µM): < 0.0316 µM; IC50 (second compound 10 µM): < 0.0316 µM; viability, T/C [1]: 94.8%; viability, T/C [2]: 77.4%; viability, T/C [3]: 80.7%; viability, T/C [4]: 52.2%; viability, T/C [5]: 35.9%; viability, T/C [6]: 20%; viability, T/C [7]: 88.6%; viability, T/C [8]: 80.6%; viability, T/C [9]: 67.9%; viability, T/C [10]: 51.1%; viability, T/C [11]: 33.7%; viability, T/C [12]: 19.3%; viability, T/C [13]: 85.6%; viability, T/C [14]: 69%; viability, T/C [15]: 68.3%; viability, T/C [16]: 47.2%; viability, T/C [17]: 30.8%; viability, T/C [18]: 16.1%; viability, T/C [19]: 58%; viability, T/C [20]: 55%; viability, T/C [21]: 42.4%; viability, T/C [22]: 42.5%; viability, T/C [23]: 24.2%; viability, T/C [24]: 11.1%; viability, T/C [25]: 39.8%; viability, T/C [26]: 37%; viability, T/C [27]: 30.7%; viability, T/C [28]: 30.2%; viability, T/C [29]: 17.5%; viability, T/C [30]: 7.85%; viability, T/C [31]: 20.2%; viability, T/C [32]: 15.3%; viability, T/C [33]: 17.8%; viability, T/C [34]: 14.2%; viability, T/C [35]: 10.5%; viability, T/C [36]: 3.97%

Question: `C#Cc1c(F)ccc2cc(O)cc(-c3ncc4c(N5CC6CCC(C5)N6)nc(OCC56CCCN5CC(F)C6)nc4c3F)c12` (centres undefined) + Cc1nc(NC(=O)N2CCCC2C(N)=O)sc1-c1ccnc(C(C)(C)C(F)(F)F)c1 was tested. Which IC50 (second compound 0.0316 µM) did it give?
Answer: Its IC50 is > 10 µM.

Question: What about the IC50 (second compound 0.1 µM) of the same compound?
Answer: The IC50 was > 10 µM.

Question: And the IC50 (second compound 0.316 µM)?
Answer: Its IC50 is > 10 µM.

Question: What about the IC50 (second compound 1 µM) of the same compound?
Answer: The IC50 was > 10 µM.

Question: And the IC50 (second compound 3.16 µM)?
Answer: The IC50 was < 0.0316 µM.

Question: And the IC50 (second compound 10 µM)?
Answer: Its IC50 is < 0.0316 µM.

Question: What about the viability, T/C [1] of the same compound?
Answer: Its viability, T/C is 106%.

Question: What about the viability, T/C [2] of the same compound?
Answer: The viability, T/C was 92.8%.

Question: And the viability, T/C [3]?
Answer: Its viability, T/C is 108%.

Question: And the viability, T/C [4]?
Answer: Its viability, T/C is 95%.

Question: And the viability, T/C [5]?
Answer: The viability, T/C was 115%.

Question: What about the viability, T/C [6] of the same compound?
Answer: The viability, T/C was 115%.

Question: What about the viability, T/C [7] of the same compound?
Answer: The viability, T/C was 100%.

Question: And the viability, T/C [8]?
Answer: Its viability, T/C is 88.6%.

Question: What about the viability, T/C [9] of the same compound?
Answer: The viability, T/C was 103%.

Question: And the viability, T/C [10]?
Answer: Its viability, T/C is 93.9%.

Question: And the viability, T/C [11]?
Answer: The viability, T/C was 115%.

Question: And the viability, T/C [12]?
Answer: The viability, T/C was 113%.

Question: What about the viability, T/C [13] of the same compound?
Answer: Its viability, T/C is 91.5%.

Question: And the viability, T/C [14]?
Answer: The viability, T/C was 92.9%.

Question: And the viability, T/C [15]?
Answer: The viability, T/C was 97.6%.

Question: What about the viability, T/C [16] of the same compound?
Answer: The viability, T/C was 94.4%.

Question: What about the viability, T/C [17] of the same compound?
Answer: The viability, T/C was 97.4%.

Question: What about the viability, T/C [18] of the same compound?
Answer: Its viability, T/C is 102%.

Question: And the viability, T/C [19]?
Answer: The viability, T/C was 70.5%.

Question: What about the viability, T/C [20] of the same compound?
Answer: Its viability, T/C is 78.3%.

Question: And the viability, T/C [21]?
Answer: Its viability, T/C is 70.7%.

Question: What about the viability, T/C [22] of the same compound?
Answer: The viability, T/C was 73.2%.

Question: What about the viability, T/C [23] of the same compound?
Answer: The viability, T/C was 75%.

Question: What about the viability, T/C [24] of the same compound?
Answer: The viability, T/C was 63.3%.

Question: And the viability, T/C [25]?
Answer: Its viability, T/C is 41.5%.

Question: What about the viability, T/C [26] of the same compound?
Answer: The viability, T/C was 48.6%.

Question: What about the viability, T/C [27] of the same compound?
Answer: Its viability, T/C is 47.1%.

Question: What about the viability, T/C [28] of the same compound?
Answer: The viability, T/C was 42.9%.

Question: And the viability, T/C [29]?
Answer: Its viability, T/C is 40.6%.

Question: What about the viability, T/C [30] of the same compound?
Answer: The viability, T/C was 31.8%.

Question: And the viability, T/C [31]?
Answer: Its viability, T/C is 24.6%.

Question: And the viability, T/C [32]?
Answer: Its viability, T/C is 21.5%.

Question: What about the viability, T/C [33] of the same compound?
Answer: The viability, T/C was 22.7%.

Question: And the viability, T/C [34]?
Answer: Its viability, T/C is 22.3%.

Question: What about the viability, T/C [35] of the same compound?
Answer: Its viability, T/C is 19%.

Question: And the viability, T/C [36]?
Answer: The viability, T/C was 7.62%.
